Some results are limits rather than exact numbers.

Data on eight compounds can be found in ChEMBL document CHEMBL1136491, “1-aryl-6,7-methylenedioxy-3H-quinazolin-4-ones as anticonvulsant agents” (Bioorg Med Chem Lett, 2003).

The target in assay [1] is Glutamate receptor ionotropic, AMPA (Rattus norvegicus, UniProt P19490+P19491+P19492+P19493). Nature of the assay: Ability to displace [3H]CP-526427 (3 nM) from binding site of the Ionotropic glutamate receptor AMPA in rat forebrain membrane. The class given is cell membranes.
Assay [2] has as its system Mus musculus. Nature of the assay: Anticonvulsant activity against audiogenic tonus seizure 30 min after intraperitoneal administration (3.3-200 umol/kg) in DBA/2 mice. The class given is functional. As to conditions: ip, 0.5 h.
Assay [3] has as its system Mus musculus. In words: Anticonvulsant activity against audiogenic clonus seizure 30 min after intraperitoneal administration (3.3-200 umol/kg) in DBA/2 mice. The class given is functional. The following applies: ip, 0.5 h.
Assay [4] concerns Mus musculus. Nature of the assay: Anticonvulsant activity against audiogenic clonus seizure 15 min after intraperitoneal administration (3.3-200 umol/kg) in DBA/2 mice. The following applies: ip, 0.25 h. The class given is functional.

A word on the IC50: it is the midpoint of a concentration-inhibition curve. A lower IC50 goes with higher potency. Usually ED50 stands for the dose that gives a 50% effect, or the effect in half of the subjects. Lower therefore signals an effect at a small dose. Consider `Oc1nc(-c2ccccc2)nc2cc3c(cc12)OCO3`, for which the IC50 in assay [1] was > 100 µM. Further, the ED50 in the assay on Mus musculus [2] is 46.1 µmol/kg; with Mus musculus [3] it was 59.5 µmol/kg.
In the same order, the values of `Oc1nc(-c2ccc(Cl)cc2)nc2cc3c(cc12)OCO3` are > 100 µM, 21.6 µmol/kg and 36.5 µmol/kg.
For the compound `Nc1ccc(-c2nnc(O)c3cc4c(cc23)OCO4)cc1`, the IC50 in assay [1] is > 100 µM.
`Nc1ccc(-c2nc(O)c3cc4c(cc3n2)OCO4)cc1`: the half-inhibitory concentration (IC50) in assay [1] was > 100 µM. Besides, the ED50 came to 17.7 µmol/kg in the assay on Mus musculus [2] and 27.8 µmol/kg in the assay on Mus musculus [3].
Regarding `Oc1nc(-c2ccc(F)cc2)nc2cc3c(cc12)OCO3`, the IC50 in assay [1] is > 100 µM. Further, the results for the ED50 with Mus musculus [2] and in the assay with Mus musculus [3] were 27.8 µmol/kg and 32.7 µmol/kg, respectively.
For `Nc1ccc(-c2nc(S)c3cc4c(cc3n2)OCO4)cc1`, the values for the ED50 with Mus musculus [2], in the assay on Mus musculus [4] and with Mus musculus [3] were 17.9 µmol/kg, 79.4 µmol/kg and 37.8 µmol/kg, respectively.
`Oc1nc(-c2ccc(Br)cc2)nc2cc3c(cc12)OCO3`: the figures for the ED50 in the assay on Mus musculus [2] and in the assay on Mus musculus [3] were 36.6 µmol/kg and 68.3 µmol/kg, respectively.
With `O=C1Cc2cc3c(cc2C(c2ccc(F)cc2)=NN1)OCO3`, the ED50 with Mus musculus [2] is 63.8 µmol/kg; with Mus musculus [3] it was 89.8 µmol/kg.
